Values of other authors as cited in patent US7091182B2, “Method for assisting in differential diagnosis and treatment of autistic syndromes” (Repligen Corporation, priority 1997, dated 2006).

System: autistic patients
Conditions: cited from earlier work

For `O=C1CC[C@@]2(O)[C@H]3Cc4ccc(O)c5c4[C@@]2(CCN3CC2CC2)[C@H]1O5` [naltrexone], the social behavior (double-blinded studies) is given as “failed to produce significant changes” and the positive response (open trial in autistic children) is given as 8 to 10 children were judged to show a positive response.
